# Laboratory results: patent US20120295292A1, “Detecting Protein Arginine Deiminase (PAD) Activity in Human Tissues and Sera” (University of South Carolina, priority 2011, published 2012)
# System: PAD
# Experiment: PAD activity in serum of mice with DSS-induced colitis (BAEE substrate, COLDER citrulline detection)
# Type: in vivo
# Details: serum of mice given 2% DSS for 1 week; Cl-amidine treated vs no treatment; p>0.005 as printed; FIG. 2A
# Method: A mouse model of colitis was used to develop a method for detecting disease incidence and disease severity by measuring the PAD activity present in serum. In this model, mice were […] or orally administered 2% dextran sulfate sodium (DSS) for 1 week to induce colitis. This model induced moderate to severe colon inflammation, shortening of the colon, and ulcer formation. The efficacy was tested of the PAD inhibitor, Cl-amidine, to determine if PAD activity was diminished in a group of Cl-amidine treated mice versus a group receiving no treatment with the PAD inhibitor. As a control, mice were given water without 2% DSS.
# To determine PAD activity levels within the mice, serum samples were collected, then resuspended in Homogenization Buffer (50 mM HEPES pH 7.6, 10% glycerol, 1% NP-40, 1 mM PMSF, and 2 mM DTT) and homogenized using a glass dounce homogenizer. Serum samples were then centrifuged at 10,600 g for 20 min to remove cellular debris. The protein concentration was measured using the Lowry assay. PAD activity was determined by incubating serum samples in a Reaction Buffer (100 mM 4-(2-hydroxyethyl)-1-piperazineethanesulfonic acid (“HEPES”) pH 7.6, 500 mM NaCl, […] (“DTT”), 100 mM CaCl2, and 100 mM N-benzoyl-L-arginine ethyl ester (“BAEE”)) as substrate for the PAD. Incubation was carried out for 2 h at 37° C. in duplicate before freezing in liquid nitrogen. […]
structure (smiles),measurement,value
NC(=O)[C@H](CCCN=C(N)CCl)NC(=O)c1ccccc1 [Cl-amidine],decrease in PAD activity as compared to the no treatment mice,greater than 2.3 fold
